Measured values from publication PMC8262137 (Biochemical pharmacology, 2020).

Target: P-glycoprotein (Pgp; Abcb1a, MDR3) (Mus musculus, UniProt P21447)
Test: intrinsic protein fluorescence quenching
Format: binding

P-glycoprotein (Pgp; Abcb1a, MDR3), sequence (P21447 whole entry): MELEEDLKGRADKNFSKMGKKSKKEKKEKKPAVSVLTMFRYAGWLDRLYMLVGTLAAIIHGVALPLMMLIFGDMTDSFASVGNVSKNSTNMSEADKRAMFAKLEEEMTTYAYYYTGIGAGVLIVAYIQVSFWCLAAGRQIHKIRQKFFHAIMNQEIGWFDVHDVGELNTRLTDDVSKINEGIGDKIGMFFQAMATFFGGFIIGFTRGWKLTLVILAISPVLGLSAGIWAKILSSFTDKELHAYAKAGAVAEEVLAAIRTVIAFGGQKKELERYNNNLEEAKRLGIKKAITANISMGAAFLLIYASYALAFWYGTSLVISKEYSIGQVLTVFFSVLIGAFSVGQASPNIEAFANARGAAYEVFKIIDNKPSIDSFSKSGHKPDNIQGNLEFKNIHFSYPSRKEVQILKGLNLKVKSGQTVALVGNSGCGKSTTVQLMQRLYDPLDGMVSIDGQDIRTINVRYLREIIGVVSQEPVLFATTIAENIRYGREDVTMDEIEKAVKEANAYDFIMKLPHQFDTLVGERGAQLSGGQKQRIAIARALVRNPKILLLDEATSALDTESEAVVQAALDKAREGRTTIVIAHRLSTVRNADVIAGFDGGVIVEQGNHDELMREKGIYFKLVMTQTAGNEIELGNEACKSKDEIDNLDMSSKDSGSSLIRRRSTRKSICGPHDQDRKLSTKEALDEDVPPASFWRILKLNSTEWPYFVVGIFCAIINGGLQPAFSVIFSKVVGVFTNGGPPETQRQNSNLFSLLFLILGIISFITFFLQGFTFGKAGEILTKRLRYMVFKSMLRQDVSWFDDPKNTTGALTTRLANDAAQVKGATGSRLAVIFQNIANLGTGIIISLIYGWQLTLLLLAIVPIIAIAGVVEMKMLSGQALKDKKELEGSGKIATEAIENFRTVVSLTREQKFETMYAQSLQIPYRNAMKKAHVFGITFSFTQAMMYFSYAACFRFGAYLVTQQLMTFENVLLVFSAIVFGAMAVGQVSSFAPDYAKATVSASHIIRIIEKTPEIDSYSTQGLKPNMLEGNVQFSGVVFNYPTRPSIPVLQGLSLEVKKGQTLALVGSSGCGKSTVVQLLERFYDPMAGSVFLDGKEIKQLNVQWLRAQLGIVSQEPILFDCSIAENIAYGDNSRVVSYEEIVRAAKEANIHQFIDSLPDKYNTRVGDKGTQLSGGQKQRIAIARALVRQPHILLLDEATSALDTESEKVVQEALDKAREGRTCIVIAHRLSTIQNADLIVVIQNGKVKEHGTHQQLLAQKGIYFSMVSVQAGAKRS

Kd	Structure (SMILES)
16.3 ± 0.7 µM	COc1cccc2c1C(=O)c1c(O)c3c(c(O)c1C2=O)C[C@@](O)(C(C)=O)C[C@@H]3O[C@H]1C[C@H](N)[C@H](O)[C@H](C)O1 [DNR, daunorubicin]
16.9 ± 1.3 µM	COc1cccc2c1C(=O)c1c(O)c3c(c(O)c1C2=O)C[C@@](O)(C(=O)CO)C[C@@H]3O[C@H]1C[C@H](N)[C@H](O)[C@H](C)O1 [DOX, doxorubicin]
